# Tests used:
# [1] = target: CDK2/Cyclin E1 (Homo sapiens, UniProt P24941); assay: CDK2/Cyclin E1 Biochemical Assay (TR-FRET), 0.060 mM ATP; details: 0.15 μM Rb (Ser780)-biotin substrate, pH7.0, 60 min preincubation, 120 min reaction, room temperature
# Outline: (§1)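 IC50 was from a four-parameter logistic fit of the 665/620 nm TR-FRET ratio (Eu anti-pRb Ser780 mAb, streptavidin-XL665). Compound (0-10 μM) was preincubated 60 min with enzyme, then reacted 120 min at room temperature with 0.15 μM biotinylated Rb (Ser780) peptide. ATP was 0.015 mM for CDK1/Cyclin B1 and 0.060 mM for CDK2/Cyclin E1; buffer was HEPES pH7.0.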
# [2] = target: CDK1/Cyclin B1 (Homo sapiens, UniProt P06493); assay: CDK1/Cyclin B1 Biochemical Assay (TR-FRET), 0.015 mM ATP; details: 0.15 μM Rb (Ser780)-biotin substrate, pH7.0, 60 min preincubation, 120 min reaction, room temperature
# Outline: as §1
# CDK1/Cyclin B1, sequence (P06493 whole entry): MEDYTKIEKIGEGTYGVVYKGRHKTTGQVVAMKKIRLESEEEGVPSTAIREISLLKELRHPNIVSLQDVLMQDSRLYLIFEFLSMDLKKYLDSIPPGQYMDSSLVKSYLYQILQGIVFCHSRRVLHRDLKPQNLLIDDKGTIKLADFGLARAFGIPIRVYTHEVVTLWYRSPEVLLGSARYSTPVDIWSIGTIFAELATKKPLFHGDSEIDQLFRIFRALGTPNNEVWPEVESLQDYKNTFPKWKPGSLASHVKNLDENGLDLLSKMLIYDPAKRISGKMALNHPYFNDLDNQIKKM
# CDK1/Cyclin B1, sequence (P14635 whole entry partner): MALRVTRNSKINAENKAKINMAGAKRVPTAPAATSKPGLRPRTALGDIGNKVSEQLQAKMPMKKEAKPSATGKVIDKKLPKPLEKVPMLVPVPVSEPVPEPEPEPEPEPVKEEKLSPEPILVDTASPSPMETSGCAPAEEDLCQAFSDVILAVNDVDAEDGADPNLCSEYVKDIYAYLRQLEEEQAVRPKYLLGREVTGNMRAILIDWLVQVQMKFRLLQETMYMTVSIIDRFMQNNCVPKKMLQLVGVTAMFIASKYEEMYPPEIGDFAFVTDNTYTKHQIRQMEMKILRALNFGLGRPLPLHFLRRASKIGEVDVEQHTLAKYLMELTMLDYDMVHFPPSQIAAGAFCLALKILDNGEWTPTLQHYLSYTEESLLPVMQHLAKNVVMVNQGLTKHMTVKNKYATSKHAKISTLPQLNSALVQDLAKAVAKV
SMILES,IC50 [1] [nM],IC50 [2] [nM]
"Cc1c(Nc2cc([C@@H]3CC[C@H](OC(=O)NC(C)C)C3)[nH]n2)ccc2c1CS(=O)(=O)N2 (relative stereo) [Example 240, cis-3-(3-((4-methyl-2,2-dioxido-1,3-dihydrobenzo[c]isothiazol-5-yl)amino)-1H-pyrazol-5-yl)cyclopentyl isopropylcarbamate]",3,28
"CC1(NC(=O)O[C@H]2CC[C@@H](c3cc(Nc4ccc5c(c4F)CS(=O)(=O)N5CC(F)(F)F)n[nH]3)C2)CCOC1 (relative stereo) [Example 407, cis-3-(3-((4-fluoro-2,2-dioxido-1-(2,2,2-trifluoroethyl)-1,3-dihydrobenzo[c]isothiazol-5-yl)amino)-1H-pyrazol-5-yl)cyclopentyl(3-methyltetrahydrofuran-3-yl)carbamate]",1.6,129
"COc1cc2c(cc1Nc1cc([C@@H]3CC[C@H](OC(=O)NC(C)C)C3)[nH]n1)S(=O)(=O)NC2(C)C (relative stereo) [Example 183, cis-3-(3-((5-methoxy-3,3-dimethyl-1,1-dioxido-2,3-dihydrobenzo[d]isothiazol-6-yl)amino)-1H-pyrazol-5-yl)cyclopentyl isopropylcarbamate]",1390,7570
"CC[C@H](C)NC(=O)O[C@H]1CC[C@@H](c2cc(Nc3ccc4c(c3F)CS(=O)(=O)N4)n[nH]2)C1 (single isomer, unassigned) [Example 383b]",1.4,15
"CC(C)NC(=O)O[C@H]1C[C@@H](c2cc(Nc3cc4c(cc3F)S(=O)(=O)NC4)n[nH]2)C1 [Example 397, (1s,3s)-3-(3-((6-fluoro-1,1-dioxido-2,3-dihydrobenzo[d]isothiazol-5-yl)amino)-1H-pyrazol-5-yl)cyclobutyl isopropylcarbamate]",103,2020
"COCC(C)NC(=O)O[C@H]1CC[C@@H](c2cc(Nc3ccc4c(c3F)CS(=O)(=O)N4C)n[nH]2)C1 (relative stereo) [Example 331, cis-3-(3-((4-fluoro-1-methyl-2,2-dioxido-1,3-dihydrobenzo[c]isothiazol-5-yl)amino)-1H-pyrazol-5-yl)cyclopentyl(1-methoxypropan-2-yl)carbamate]",3.9,229
"CC(C)NC(=O)O[C@H]1CC[C@@H](c2cc(Nc3ccc4c(c3F)CN(C(C)C)S4(=O)=O)n[nH]2)C1 (relative stereo) [Example 65, cis-3-(3-((4-fluoro-2-isopropyl-1,1-dioxido-2,3-dihydrobenzo[d]isothiazol-5-yl)amino)-1H-pyrazol-5-yl)cyclopentyl isopropylcarbamate]",6.9,299
"CC1(NC(=O)O[C@H]2CC[C@@H](c3cc(Nc4ccc5c(c4F)CS(=O)(=O)N5)n[nH]3)C2)CC1 (single isomer, unassigned) [Example 388b]",1.3,21
"CC(C)NC(=O)O[C@H]1CC[C@@H](c2cc(Nc3ccc4c(c3F)CN(CC3CN(S(C)(=O)=O)C3)S4(=O)=O)n[nH]2)C1 (relative stereo) [Example 326, cis-3-(3-((4-fluoro-2-((1-(methylsulfonyl)azetidin-3-yl)methyl)-1,1-dioxido-2,3-dihydrobenzo[d]isothiazol-5-yl)amino)-1H-pyrazol-5-yl)cyclopentyl isopropylcarbamate]",6.6,290
"CC(C)NC(=O)O[C@H]1CC[C@@H](c2cc(Nc3ccc4c(c3F)C(C)NS4(=O)=O)n[nH]2)C1 (single isomer, unassigned) [Example 51a, cis-3-(3-((4-fluoro-3-methyl-1,1-dioxido-2,3-dihydrobenzo[d]isothiazol-5-yl)amino)-1H-pyrazol-5-yl)cyclopentyl isopropylcarbamate]",2.5,194
"COCCN1c2ccc(Nc3cc([C@@H]4CC[C@H](OC(=O)NC(C)C)C4)[nH]n3)c(F)c2CS1(=O)=O (relative stereo) [Example 252, cis-3-(3-((4-fluoro-1-(2-methoxyethyl)-2,2-dioxido-1,3-dihydrobenzo[c]isothiazol-5-yl)cyclopentyl isopropylcarbamate]",3.8,79
"Cc1c(Nc2cc([C@@H]3CC[C@H](OC(=O)NC(C)C)C3)[nH]n2)ccc2c1CNS2(=O)=O (relative stereo) [Example 34, cis-3-(3-((4-methyl-1,1-dioxido-2,3-dihydrobenzo[d]isothiazol-5-yl)amino)-1H-pyrazol-5-yl)cyclopentyl isopropylcarbamate]",1.9,81
"[2H]C([2H])([2H])N1c2ccc(Nc3cc([C@@H]4CC[C@H](OC(=O)N[C@@H](C)CC)C4)[nH]n3)c(F)c2CS1(=O)=O (relative stereo) [Example 269, cis-3-(3-((4-fluoro-1-(methyl-d3)-2,2-dioxido-1,3-dihydrobenzo[c]isothiazol-5-yl)amino)-1H-pyrazol-5-yl)cyclopentyl((S)-sec-butyl)carbamate]",5.6,61
"CN1c2ccc(Nc3cc([C@@H]4CC[C@H](OC(=O)NC5(CO)CC5)C4)[nH]n3)c(F)c2CS1(=O)=O (relative stereo) [Example 350, cis-3-(3-((4-fluoro-1-methyl-2,2-dioxido-1,3-dihydrobenzo[c]isothiazol-5-yl)amino)-1H-pyrazol-5-yl)cyclopentyl(1-(hydroxymethyl)cyclopropyl)carbamate]",20,321
"C[C@]1(O)CC[C@@H](NC(=O)O[C@H]2CC[C@@H](c3cc(Nc4ccc5c(c4F)CNS5(=O)=O)n[nH]3)C2)CC1 (relative stereo) [Example 144, cis-3-(3-((4-fluoro-1,1-dioxido-2,3-dihydrobenzo[d]isothiazol-5-yl)amino)-1H-pyrazol-5-yl)cyclopentyl((1s,4s)-4-hydroxy-4-methylcyclohexyl)carbamate]",3.9,302
"CCCNC(=O)O[C@H]1CC[C@@H](c2cc(Nc3ccc4c(c3F)CNS4(=O)=O)n[nH]2)C1 (single isomer, unassigned) [Example 138b]",1.5,60
"CN1Cc2c(ccc(Nc3cc([C@@H]4CC[C@H](OC(=O)NC5CCC(O)CC5)C4)[nH]n3)c2F)S1(=O)=O (single isomer, unassigned) [Example 167, cis-3-(3-((4-fluoro-2-methyl-1,1-dioxido-2,3-dihydrobenzo[d]isothiazol-5-yl)amino)-1H-pyrazol-5-yl)cyclopentyl(4-hydroxycyclohexyl)carbamate]",9.2,514
"CN1c2ccc(Nc3cc([C@@H]4CC[C@H](OC(=O)NC5(C)CCOC5)C4)[nH]n3)c(F)c2CS1(=O)=O (single isomer, unassigned) [Example 349b, cis-3-(3-((4-fluoro-1-methyl-2,2-dioxido-1,3-dihydrobenzo[c]isothiazol-5-yl)amino)-1H-pyrazol-5-yl)cyclopentyl(3-methyltetrahydrofuran-3-yl)carbamate]",1.2,88
"CC1(NC(=O)O[C@H]2CC[C@@H](c3cc(Nc4ccc5c(c4Cl)CNS5(=O)=O)n[nH]3)C2)CC1 (single isomer, unassigned) [Example 40b, cis-3-(3-((4-chloro-1,1-dioxido-2,3-dihydrobenzo[d]isothiazol-5-yl)amino)-1H-pyrazol-5-yl)cyclopentyl(1-methylcyclopropyl)carbamate]",3.1,181
